Values quoted from earlier work in patent US20040248925A1, “Use of 4-phenyl substituted tetrahydroisoquinolines in the treatment of pain, migraine and urinary incontinence” (priority 2002, published 2004).

Conditions: following treatment with imipramine; background statement

CN(C)CCCN1c2ccccc2CCc2ccccc21 [imipramine, Imipramine]
further patients in whom improvements can be seen: 15-20% | patients in whom enuresis can be cured: over 50%
